ChEMBL document CHEMBL1201862, “PubChem BioAssay data set” (2004)
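Cells were grown in 96-well plates and exposed to each compound for 48 hours at five concentrations; endpoints were interpolated linearly between bracketing concentrations, or set to the highest concentration if not reached. GI50 = concentration required for 50% inhibition of growth.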 Active and inactive are the calls of the source. No stated cut-off is given here; in the data, active = GI50 up to about 1.1 µM and inactive = higher.

Columns and labels:
Test in all cases: NCI tumour cell line growth inhibition, 48 h
A549 = tested on: A549
NCI/ADR-RES = tested on: NCI/ADR-RES
HCT-116 = tested on: HCT-116
SK-MEL-2 = tested on: SK-MEL-2
MOLT-4 = tested on: MOLT-4
K562 = tested on: K562
OVCAR-4 = tested on: OVCAR-4
CAKI-1 = tested on: CAKI-1
UO-31 = tested on: UO-31
CCRF-CEM = tested on: CCRF-CEM
SK-MEL-5 = tested on: SK-MEL-5
MDA-MB-435 = tested on: MDA-MB-435
HCT-15 = tested on: HCT-15
NCI-H460 = tested on: NCI-H460
786-0 = tested on: 786-0
SNB-19 = tested on: SNB-19
NCI-H23 = tested on: NCI-H23
OVCAR-3 = tested on: OVCAR-3
RPMI-8226 = tested on: RPMI-8226
Malme-3M = tested on: Malme-3M
PC-3 = tested on: PC-3
IGROV-1 = tested on: IGROV-1
HOP-92 = tested on: HOP-92
SN12C = tested on: SN12C
MDA-N = tested on: MDA-N
HT-29 = tested on: HT-29
TK-10 = tested on: TK-10
SF-295 = tested on: SF-295
Hs-578T = tested on: Hs-578T
OVCAR-8 = tested on: OVCAR-8
SR = tested on: SR
EKVX = tested on: EKVX
COLO 205 = tested on: COLO 205
SK-OV-3 = tested on: SK-OV-3
ACHN = tested on: ACHN
OVCAR-5 = tested on: OVCAR-5
HOP-62 = tested on: HOP-62
SF-539 = tested on: SF-539
UACC-62 = tested on: UACC-62
SW-620 = tested on: SW-620
MCF7 = tested on: MCF7
A498 = tested on: A498
M14 = tested on: M14
LOX IMVI = tested on: LOX IMVI
HCC 2998 = tested on: HCC 2998
HL-60 = tested on: HL-60
UACC-257 = tested on: UACC-257
SF-268 = tested on: SF-268
SK-MEL-28 = tested on: SK-MEL-28
BT-549 = tested on: BT-549
SNB-75 = tested on: SNB-75
KM12 = tested on: KM12
DU-145 = tested on: DU-145
NCI-H522 = tested on: NCI-H522
U-251 = tested on: U-251
MDA-MB-231 = tested on: MDA-MB-231
NCI-H226 = tested on: NCI-H226
RXF 393 = tested on: RXF 393

SMILES: CCCNC(=O)Cn1c2c(c3ccccc31)CCCC2
- GI50 (A549): 53.8 µM (inactive)
- GI50 (NCI/ADR-RES): 50.9 µM (inactive)
- GI50 (HCT-116): 29.2 µM (inactive)
- GI50 (SK-MEL-2): > 100 µM (inactive)
- GI50 (MOLT-4): 43.6 µM (inactive)
- GI50 (K562): 73.1 µM (inactive)
- GI50 (OVCAR-4): 45.8 µM (inactive)
- GI50 (CAKI-1): 77.1 µM (inactive)
- GI50 (UO-31): 20 µM (inactive)
- GI50 (CCRF-CEM): > 100 µM (inactive)
- GI50 (SK-MEL-5): 33.7 µM (inactive)
- GI50 (MDA-MB-435): > 100 µM (inactive)
- GI50 (HCT-15): 45.2 µM
- GI50 (NCI-H460): 58.2 µM (inactive)
- GI50 (786-0): > 100 µM (inactive)
- GI50 (SNB-19): 36.7 µM (inactive)
- GI50 (NCI-H23): 72.3 µM (inactive)
- GI50 (OVCAR-3): 36.9 µM (inactive)
- GI50 (RPMI-8226): 40.7 µM (inactive)
- GI50 (Malme-3M): > 100 µM (inactive)
- GI50 (PC-3): 63.8 µM (inactive)
- GI50 (IGROV-1): > 100 µM (inactive)
- GI50 (HOP-92): > 100 µM (inactive)
- GI50 (SN12C): 65.2 µM (inactive)
- GI50 (MDA-N): 68.7 µM (inactive)
- GI50 (HT-29): > 100 µM (inactive)
- GI50 (TK-10): > 100 µM (inactive)
- GI50 (SF-295): 38.5 µM (inactive)
- GI50 (Hs-578T): 23.1 µM (inactive)
- GI50 (OVCAR-8): > 100 µM (inactive)
- GI50 (SR): 42.8 µM (inactive)
- GI50 (EKVX): 56.6 µM (inactive)
- GI50 (COLO 205): > 100 µM (inactive)
- GI50 (SK-OV-3): 94.8 µM (inactive)
- GI50 (ACHN): 34.9 µM (inactive)
- GI50 (OVCAR-5): > 100 µM (inactive)
- GI50 (HOP-62): 78 µM (inactive)
- GI50 (SF-539): 37.1 µM (inactive)
- GI50 (UACC-62): 45.4 µM (inactive)
- GI50 (SW-620): 55.6 µM (inactive)
- GI50 (MCF7): > 100 µM (inactive)
- GI50 (A498): 27.8 µM (inactive)
- GI50 (M14): > 100 µM (inactive)
- GI50 (LOX IMVI): > 100 µM (inactive)
- GI50 (HCC 2998): 75.5 µM (inactive)
- GI50 (HL-60): 29.6 µM (inactive)
- GI50 (UACC-257): 94 µM (inactive)
- GI50 (SF-268): > 100 µM (inactive)
- GI50 (SK-MEL-28): 88.9 µM (inactive)
- GI50 (BT-549): 87.7 µM (inactive)

SMILES: CCN1CCCC(Nc2cc(C)nc(NC(=N)Nc3ccc(Cl)c(Cl)c3)n2)C1 (stereo not given)
- GI50 (A549): 1.91 µM (inactive)
- GI50 (NCI/ADR-RES): 2.78 µM (inactive)
- GI50 (HCT-116): 1.26 µM (inactive)
- GI50 (SK-MEL-2): 2.04 µM (inactive)
- GI50 (SNB-75): 1.25 µM (inactive)
- GI50 (MOLT-4): 0.658 µM (active)
- GI50 (K562): 0.217 µM (active)
- GI50 (OVCAR-4): 1.85 µM (inactive)
- GI50 (CAKI-1): 1.56 µM (inactive)
- GI50 (UO-31): 0.982 µM (active)
- GI50 (CCRF-CEM): 0.63 µM (active)
- GI50 (SK-MEL-5): 2.08 µM (inactive)
- GI50 (MDA-MB-435): 1.49 µM (inactive)
- GI50 (KM12): 1.85 µM (inactive)
- GI50 (HCT-15): 1.74 µM
- GI50 (NCI-H460): 1.26 µM (inactive)
- GI50 (DU-145): 4.43 µM (inactive)
- GI50 (786-0): 1.54 µM (inactive)
- GI50 (SNB-19): 2.14 µM (inactive)
- GI50 (NCI-H23): 1.77 µM (inactive)
- GI50 (NCI-H522): 1.24 µM (inactive)
- GI50 (OVCAR-3): 1.67 µM (inactive)
- GI50 (RPMI-8226): 0.455 µM (active)
- GI50 (Malme-3M): 2.39 µM (inactive)
- GI50 (IGROV-1): 1.38 µM (inactive)
- GI50 (HOP-92): 1.31 µM (inactive)
- GI50 (SN12C): 2.58 µM (inactive)
- GI50 (MDA-N): 1.67 µM (inactive)
- GI50 (U-251): 1.3 µM (inactive)
- GI50 (HT-29): 3.06 µM (inactive)
- GI50 (TK-10): 1.69 µM (inactive)
- GI50 (SF-295): 1.07 µM (active)
- GI50 (Hs-578T): 2.02 µM (inactive)
- GI50 (SR): 1.2 µM (inactive)
- GI50 (EKVX): 2.86 µM (inactive)
- GI50 (COLO 205): 1.27 µM (inactive)
- GI50 (SK-OV-3): 2.78 µM (inactive)
- GI50 (MDA-MB-231): 1.62 µM (inactive)
- GI50 (ACHN): 2.32 µM (inactive)
- GI50 (OVCAR-5): 2.74 µM (inactive)
- GI50 (HOP-62): 1.43 µM (inactive)
- GI50 (SF-539): 1.88 µM (inactive)
- GI50 (UACC-62): 1.85 µM (inactive)
- GI50 (MCF7): 1.79 µM (inactive)
- GI50 (M14): 0.254 µM (active)
- GI50 (HCC 2998): 0.551 µM (active)
- GI50 (HL-60): 0.216 µM (active)
- GI50 (SF-268): 1.96 µM (inactive)
- GI50 (SK-MEL-28): 1.77 µM (inactive)
- GI50 (BT-549): 1.64 µM (inactive)

SMILES: N/N=C1/C2CN3CCN(C2)CC1(c1ccc([N+](=O)[O-])cc1)C3
- GI50 (NCI/ADR-RES): > 100 µM (inactive)
- GI50 (HCT-116): > 100 µM (inactive)
- GI50 (SK-MEL-2): > 100 µM (inactive)
- GI50 (SNB-75): > 100 µM (inactive)
- GI50 (MOLT-4): > 100 µM (inactive)
- GI50 (K562): > 100 µM (inactive)
- GI50 (OVCAR-4): > 100 µM (inactive)
- GI50 (CAKI-1): > 100 µM (inactive)
- GI50 (UO-31): > 100 µM (inactive)
- GI50 (SK-MEL-5): > 100 µM (inactive)
- GI50 (MDA-MB-435): > 100 µM (inactive)
- GI50 (KM12): > 100 µM (inactive)
- GI50 (DU-145): > 100 µM (inactive)
- GI50 (786-0): > 100 µM (inactive)
- GI50 (SNB-19): > 100 µM (inactive)
- GI50 (NCI-H23): > 100 µM (inactive)
- GI50 (NCI-H522): > 100 µM (inactive)
- GI50 (OVCAR-3): > 100 µM (inactive)
- GI50 (RPMI-8226): > 100 µM (inactive)
- GI50 (Malme-3M): > 100 µM (inactive)
- GI50 (PC-3): > 100 µM (inactive)
- GI50 (IGROV-1): > 100 µM (inactive)
- GI50 (SN12C): > 100 µM (inactive)
- GI50 (MDA-N): > 100 µM (inactive)
- GI50 (U-251): > 100 µM (inactive)
- GI50 (HT-29): > 100 µM (inactive)
- GI50 (TK-10): > 100 µM (inactive)
- GI50 (SF-295): > 100 µM (inactive)
- GI50 (Hs-578T): 14.7 µM (inactive)
- GI50 (OVCAR-8): > 100 µM (inactive)
- GI50 (SR): 27.7 µM (inactive)
- GI50 (EKVX): > 100 µM (inactive)
- GI50 (COLO 205): > 100 µM (inactive)
- GI50 (NCI-H226): > 100 µM (inactive)
- GI50 (MDA-MB-231): > 100 µM (inactive)
- GI50 (ACHN): > 100 µM (inactive)
- GI50 (OVCAR-5): > 100 µM (inactive)
- GI50 (HOP-62): > 100 µM (inactive)
- GI50 (SF-539): > 100 µM (inactive)
- GI50 (UACC-62): > 100 µM (inactive)
- GI50 (SW-620): > 100 µM (inactive)
- GI50 (MCF7): > 100 µM (inactive)
- GI50 (A498): > 100 µM (inactive)
- GI50 (RXF 393): > 100 µM (inactive)
- GI50 (LOX IMVI): > 100 µM (inactive)
- GI50 (HL-60): > 100 µM (inactive)
- GI50 (UACC-257): > 100 µM (inactive)
- GI50 (SF-268): > 100 µM (inactive)
- GI50 (SK-MEL-28): > 100 µM (inactive)
- GI50 (BT-549): > 100 µM (inactive)
